Drawing on paper doi:10.1101/265348v4, “Transcriptional Activation of Elephant Shark Mineralocorticoid Receptor by Corticosteroids, Progesterone and Spironolactone” (biorxiv, 2018), this text covers Emax for eight compounds.

Assay in all cases: cell-based
Common to all, as to details: HEK293; relative to aldosterone = 100%; read-out: % relative to Aldo

Assay [1] concerns the target T1, truncated elephant shark MR (GAL4-DBD-MR-LBD) (Callorhinchus milii, UniProt A0A4W3I5J5).
T1 construct: gene nr3c2
T1 sequence (A0A4W3I5J5 658-956 limits assumed): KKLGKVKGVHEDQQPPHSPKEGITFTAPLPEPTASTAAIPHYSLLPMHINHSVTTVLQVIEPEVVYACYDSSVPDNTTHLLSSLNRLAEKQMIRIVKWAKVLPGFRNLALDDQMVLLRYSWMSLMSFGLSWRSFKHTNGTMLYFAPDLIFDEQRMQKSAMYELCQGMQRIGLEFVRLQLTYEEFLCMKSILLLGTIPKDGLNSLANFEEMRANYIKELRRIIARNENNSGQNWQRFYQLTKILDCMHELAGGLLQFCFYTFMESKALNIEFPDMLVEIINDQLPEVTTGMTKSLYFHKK
More on the design: transcriptional activation of truncated GAL4-DBD-MR-LBD, luciferase reporter, concentration-response. From the text:
(§1) In parallel experiments, truncated elephant shark MR, lacking the A/B domain and containing a GAL4-DBD instead of the MR DBD, retained a strong response to all corticosteroids and to [compound left out] (Figure 3B). […] Concentration-dependent transcriptional activation of full-length and truncated elephant shark MR (shark MR) by 3-ketosteroids. Full length and truncated elephant shark MR (shark MR) were expressed in HEK293 cells with an MMTV-luciferase reporter. Full-length elephant shark MR (shark MR) (A) and (C) and truncated elephant shark MR (shark MR) (B) and (D). (A), (B) Aldo, cortisol, corticosterone, 11deoxycorticosterone or 11-deoxycortisol. (C), (D) Aldo, Prog, [compound left out] [compound left out], 17OH-Prog (17OH-P) or Spiron. […] Y-axis indicates fold-activation compared to the activity of control vector with vehicle (DMSO) alone as 1.  Figure 5. Concentration-dependent transcriptional activation of full-length and truncated chicken and zebrafish MR by progestins and Spironolactone. […] Full-length chicken MR (A) and zebrafish MR (B) and truncated chicken MR (C) and zebrafish MR (D). Y-axis indicates fold-activation compared to the activity of control vector with vehicle (DMSO) alone as 1.

The target in assay [2] is T2, full-length elephant shark MR (Callorhinchus milii, UniProt A0A4W3I5J5).
T2 construct: gene nr3c2; full coding region in pcDNA3.1, expressed in HEK293 cells
T2 sequence (A0A4W3I5J5 1-956): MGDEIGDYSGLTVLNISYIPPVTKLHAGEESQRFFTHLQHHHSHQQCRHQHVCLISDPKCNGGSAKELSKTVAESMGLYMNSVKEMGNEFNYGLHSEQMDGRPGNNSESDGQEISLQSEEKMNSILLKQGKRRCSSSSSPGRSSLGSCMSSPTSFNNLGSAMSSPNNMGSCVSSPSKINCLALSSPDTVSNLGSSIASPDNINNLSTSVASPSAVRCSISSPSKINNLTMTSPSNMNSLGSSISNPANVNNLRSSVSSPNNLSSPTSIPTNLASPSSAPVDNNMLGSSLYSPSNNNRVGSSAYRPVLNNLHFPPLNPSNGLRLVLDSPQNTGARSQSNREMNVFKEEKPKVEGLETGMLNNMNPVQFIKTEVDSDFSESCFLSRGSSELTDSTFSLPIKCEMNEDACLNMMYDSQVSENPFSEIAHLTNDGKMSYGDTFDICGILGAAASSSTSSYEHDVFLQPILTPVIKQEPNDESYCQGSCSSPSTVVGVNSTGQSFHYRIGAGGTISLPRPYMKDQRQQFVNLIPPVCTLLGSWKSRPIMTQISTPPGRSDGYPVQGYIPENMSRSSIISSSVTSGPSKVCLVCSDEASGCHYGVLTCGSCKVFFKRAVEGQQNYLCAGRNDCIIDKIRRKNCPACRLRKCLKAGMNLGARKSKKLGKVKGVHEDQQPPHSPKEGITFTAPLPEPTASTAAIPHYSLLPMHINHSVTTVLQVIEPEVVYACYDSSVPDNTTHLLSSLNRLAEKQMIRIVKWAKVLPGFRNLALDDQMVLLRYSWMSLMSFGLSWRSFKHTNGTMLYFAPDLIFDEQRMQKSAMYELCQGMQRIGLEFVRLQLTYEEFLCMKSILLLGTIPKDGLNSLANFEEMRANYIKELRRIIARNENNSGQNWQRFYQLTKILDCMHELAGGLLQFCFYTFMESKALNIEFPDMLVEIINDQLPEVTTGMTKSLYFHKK
More on the design: transcriptional activation of full-length MR, MMTV-luciferase reporter, concentration-response. From the text: (§2) Figure 3. Transcriptional activation of elephant shark MR by 3-ketosteroids. Full length and truncated elephant shark MR were expressed in HEK293 cells with an MMTV-luciferase reporter. A. Full length elephant shark MR. […] (19NP), 17OH-Prog, Spiron or vehicle alone (DMSO). B. Truncated elephant shark MR. […] (19NP), 17OH-Prog or Spiron or vehicle alone (DMSO). Results are expressed as means ± SEM, n=3. Y-axis indicates fold-activation compared to the activity of control vector with vehicle (DMSO) alone as 1.  Figure 4. Concentration-dependent transcriptional activation of full-length and truncated elephant shark MR (shark MR) by 3-ketosteroids. Full length and truncated elephant shark MR (shark MR) were expressed in HEK293 cells with an MMTV-luciferase reporter. Full-length elephant shark MR (shark MR) (A) and (C) and truncated elephant shark MR (shark MR) (B) and (D). (A), (B) Aldo, cortisol, corticosterone, 11deoxycorticosterone or 11-deoxycortisol. (C), (D) Aldo, Prog, [compound left out] [compound left out], 17OH-Prog (17OH-P) or Spiron. […] Y-axis indicates fold-activation compared to the activity of control vector with vehicle (DMSO) alone as 1.  Figure 5. Concentration-dependent transcriptional activation of full-length and truncated chicken and zebrafish MR by progestins and Spironolactone. […] Full-length chicken MR (A) and zebrafish MR (B) and truncated chicken MR (C) and zebrafish MR (D). Y-axis indicates fold-activation compared to the activity of control vector with vehicle (DMSO) alone as 1.

The next assay deals with T3, full-length chicken MR (Gallus gallus, UniProt C1KB84).
T3 construct: gene NR3C2; full-length, expressed in HEK293 cells
T3 sequence (C1KB84 1-986): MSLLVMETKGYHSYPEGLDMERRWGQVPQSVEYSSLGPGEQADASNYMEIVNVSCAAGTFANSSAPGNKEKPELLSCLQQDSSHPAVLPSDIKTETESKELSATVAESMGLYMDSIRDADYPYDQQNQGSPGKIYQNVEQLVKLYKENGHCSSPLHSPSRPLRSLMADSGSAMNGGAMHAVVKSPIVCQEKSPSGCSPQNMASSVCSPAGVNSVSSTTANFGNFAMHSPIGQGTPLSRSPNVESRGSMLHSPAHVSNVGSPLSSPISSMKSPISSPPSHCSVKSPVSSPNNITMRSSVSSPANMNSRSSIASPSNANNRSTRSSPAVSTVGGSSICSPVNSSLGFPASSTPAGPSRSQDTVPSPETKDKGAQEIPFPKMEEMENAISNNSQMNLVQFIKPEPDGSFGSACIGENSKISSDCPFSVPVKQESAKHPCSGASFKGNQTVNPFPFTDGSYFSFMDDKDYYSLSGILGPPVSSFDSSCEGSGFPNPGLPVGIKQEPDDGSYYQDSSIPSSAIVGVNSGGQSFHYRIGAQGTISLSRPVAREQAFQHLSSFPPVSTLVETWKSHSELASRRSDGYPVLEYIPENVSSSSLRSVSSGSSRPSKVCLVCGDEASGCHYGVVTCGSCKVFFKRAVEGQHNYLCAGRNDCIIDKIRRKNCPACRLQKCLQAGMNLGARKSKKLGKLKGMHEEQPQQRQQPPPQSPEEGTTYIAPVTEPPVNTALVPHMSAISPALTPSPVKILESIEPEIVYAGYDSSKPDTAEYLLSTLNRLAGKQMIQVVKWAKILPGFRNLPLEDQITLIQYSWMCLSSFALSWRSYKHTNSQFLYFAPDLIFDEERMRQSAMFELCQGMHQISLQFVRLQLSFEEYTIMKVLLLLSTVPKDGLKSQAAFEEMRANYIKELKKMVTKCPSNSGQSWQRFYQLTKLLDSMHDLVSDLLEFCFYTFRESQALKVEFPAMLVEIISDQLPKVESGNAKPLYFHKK
More on the design: transcriptional activation of full-length MR, MMTV-luciferase reporter, concentration-response.
Text: as §2

The target of another assay is T4, full-length zebrafish MR (Danio rerio, UniProt A6YIH7).
T4 construct: gene nr3c2; full-length, expressed in HEK293 cells
T4 sequence (A6YIH7 1-970): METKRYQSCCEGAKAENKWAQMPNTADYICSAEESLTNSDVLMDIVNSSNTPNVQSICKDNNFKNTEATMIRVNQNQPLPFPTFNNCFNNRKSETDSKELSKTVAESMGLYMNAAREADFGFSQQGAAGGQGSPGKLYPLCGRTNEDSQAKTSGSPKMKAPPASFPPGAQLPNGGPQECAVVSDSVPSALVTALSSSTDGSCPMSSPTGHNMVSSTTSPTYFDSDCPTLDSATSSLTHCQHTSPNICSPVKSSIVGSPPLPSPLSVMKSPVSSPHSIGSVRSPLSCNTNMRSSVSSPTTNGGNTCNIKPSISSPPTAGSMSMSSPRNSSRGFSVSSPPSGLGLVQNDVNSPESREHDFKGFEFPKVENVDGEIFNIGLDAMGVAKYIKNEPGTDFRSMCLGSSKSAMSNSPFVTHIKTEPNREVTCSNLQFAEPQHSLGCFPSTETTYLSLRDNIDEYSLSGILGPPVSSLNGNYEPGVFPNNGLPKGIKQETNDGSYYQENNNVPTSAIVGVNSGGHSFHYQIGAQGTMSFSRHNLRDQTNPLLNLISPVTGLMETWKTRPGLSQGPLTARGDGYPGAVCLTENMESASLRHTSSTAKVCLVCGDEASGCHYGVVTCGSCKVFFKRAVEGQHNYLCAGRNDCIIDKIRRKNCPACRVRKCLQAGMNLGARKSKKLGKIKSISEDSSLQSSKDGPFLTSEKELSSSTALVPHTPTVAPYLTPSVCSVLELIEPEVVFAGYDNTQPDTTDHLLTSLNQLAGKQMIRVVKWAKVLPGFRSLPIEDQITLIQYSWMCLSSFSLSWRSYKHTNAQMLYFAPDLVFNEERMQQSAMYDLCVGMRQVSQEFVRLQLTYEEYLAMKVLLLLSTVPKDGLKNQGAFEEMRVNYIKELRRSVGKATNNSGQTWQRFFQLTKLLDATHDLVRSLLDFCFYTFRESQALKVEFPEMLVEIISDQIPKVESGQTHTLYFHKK
Details: transcriptional activation of full-length MR, MMTV-luciferase reporter, concentration-response.
Text: as §2

Assay [3] concerns the target T5, truncated zebrafish MR (GAL4-DBD-MR-LBD) (Danio rerio, UniProt A6YIH7).
T5 construct: gene nr3c2
T5 sequence (A6YIH7 669-970 limits assumed): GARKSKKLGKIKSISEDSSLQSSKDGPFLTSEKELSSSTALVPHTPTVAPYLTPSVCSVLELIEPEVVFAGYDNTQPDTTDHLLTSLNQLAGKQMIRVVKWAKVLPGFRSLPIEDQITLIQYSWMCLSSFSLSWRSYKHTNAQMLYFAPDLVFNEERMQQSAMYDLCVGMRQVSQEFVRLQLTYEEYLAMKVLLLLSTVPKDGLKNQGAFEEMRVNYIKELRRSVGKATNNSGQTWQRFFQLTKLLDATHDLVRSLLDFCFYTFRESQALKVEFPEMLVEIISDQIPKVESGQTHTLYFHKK
Details: transcriptional activation of truncated GAL4-DBD-MR-LBD, luciferase reporter, concentration-response.
Text: as §1

Consider `C[C@]12CC[C@H]3[C@@H](CCC4=CC(=O)CC[C@@]43C)[C@@H]1CC[C@@H]2C(=O)CO` [11-deoxycorticosterone], for which the values for the Emax in assay [1] and in assay [2] were 81% and 83%, respectively.
Consider `CC(=O)[C@@]1(O)CC[C@H]2[C@@H]3CCC4=CC(=O)CC[C@]4(C)[C@H]3CC[C@@]21C` [17OH-Prog], for which the Emax is 26% in assay [1], 25% in assay [2], 15% on full-length chicken MR and 44% on full-length zebrafish MR.
Turning to `CC(=O)[C@H]1CC[C@H]2[C@@H]3CCC4=CC(=O)CC[C@@H]4[C@H]3CC[C@]12C` [19norProg], the Emax in assay [1] was determined as 98%; in assay [3], 122%; in assay [2], 84%; on full-length chicken MR it was 68%; on full-length zebrafish MR, 83%.
Consider `C[C@]12C[C@H](O)[C@H]3[C@@H](CCC4=CC(=O)CC[C@@]43C)[C@@H]1CC[C@@H]2C(=O)CO` [B, corticosterone], for which the Emax was 90% in assay [1] and 101% in assay [2].
As to `CC(=O)[C@H]1CC[C@H]2[C@@H]3CCC4=CC(=O)CC[C@]4(C)[C@H]3CC[C@]12C` [Prog], the Emax in assay [1] came out at 40%; in assay [3] it was 122%; in assay [2], 43%; on full-length chicken MR it was 62%; at full-length zebrafish MR, 77%.
`C[C@]12CCC(=O)C=C1CC[C@@H]1[C@@H]2CC[C@@]2(C)[C@H]1CC[C@]2(O)C(=O)CO` [S, 11-deoxycortisol]: the Emax in assay [1] is 77%; in assay [2] it was 83%.
On to `CC(=O)S[C@@H]1CC2=CC(=O)CC[C@]2(C)[C@H]2CC[C@@]3(C)[C@@H](CC[C@@]34CCC(=O)O4)[C@H]12` [Spiron], for which the Emax in assay [1] was determined as 53%; in assay [2], 45%; at full-length chicken MR, 30%; at full-length zebrafish MR, 54%.
Turning to `C[C@]12CCC(=O)C=C1CC[C@@H]1[C@@H]2[C@@H](O)C[C@@]2(C)[C@H]1CC[C@]2(O)C(=O)CO` [cortisol], the figures for the Emax in assay [1] and in assay [2] were 79% and 114%, respectively.
